For six compounds, IC50 and conductivity results are on record in publication PMC10135378, “Synthesis of Novel N-Heterocyclic Carbene-Ruthenium (II) Complexes, “Precious” Tools with Antibacterial, Anticancer and Antioxidant Properties” (Antibiotics, 2023).

Data set [1] can be described thus: DPPH radical scavenging assay. The note with it: 30 min, room temperature, 517 nm. The method, then: Generally, the DPPH radical is able to accept hydrogen radicals or an electron, turning into a stable molecule. The interaction with Ru-NHC complexes induces the reduction of DPPH radical intensity measured at 517 nm, due to the conversion of the purple DPPH radical into its corresponding yellow hydrazine form.
The radical scavenging properties of Ru-NHC complexes on the 1,1-diphenyl-2-picryl-hydrazil (DPPH) radical were evaluated as described by Fazio et al., with minor corrections. Then, 20 μL of each Ru complex, properly dissolved in DMSO, were mixed with methanol DPPH 0.1 mM (180 μL) in a 48-well plate obtaining […] different concentrations (10, 50, 100, 200 and 300 µg/mL). Next, 20 μL of DMSO in 180 μL of DPPH methanol solution was diluted as the control. The mixture was vigorously shaken and incubated (room temperature, 30 min, in the dark). The scavenging activity was measured at 517 nm, using a microplate reader. DPPH radical scavenging was expressed as inhibition percentages (%IDPPH) for the Ru complexes compared to the initial concentration of DPPH (control) according to the formula: %IDPPH=A0−A/A0×100 where A0 is the absorbance at 517 nm of the control reaction and A is the absorbance at 517 nm in the presence of samples.
The obtained IDPPH percentages allowed the IC50 values determination, using GraphPad Prism 9 software (GraphPad Inc., San Diego, CA, USA). Trolox was employed as a positive control.
(In general: DPPH is a stable violet radical that fades when it is reduced.)

Data set [2] concerns MCF-7 cells. In words: MTT assay, anticancer activity on MCF-7 cells. Type of data set: cell-based, human. As to conditions: 72 h exposure, 0.1-100 µM. The method, then:
The anticancer activity of all the synthesized Ru-NHC complexes (RANHC I-VI) was studied in two human breast cancer cell lines, namely the estrogen receptor positive (ER+) MCF-7 cells and the triple negative MDA-MB-231 cells (ER-, PR-, and HER-2/Neu not overexpressed), and neuroblastoma cells, i.e., SH-SY5Y. First, the cells were exposed for 72 h at different concentrations of the studied complexes (from 0.1 to 100 µM) and then their viability was checked by MTT assay.
(§1) The adopted cells (breast cancer MCF-7 and MDA-MB-231 and human mammary epithelial MCF-10A cells) were purchased from American Type Culture Collection (ATCC, Manassas, VA, USA) and cultured as indicated. The mouse embryonic fibroblast BALB/3T3 and neuroblastoma SH-SY5Y were also obtained from American Type Culture Collection (ATCC, Manassas, VA, USA) and cultured in DMEM high glucose supplemented with 100 U mL^−1 penicillin/streptomycin and 10% bovine calf serum (BCS) or 10% fetal bovine serum (FBS), respectively.
(§2) MTT assay (Sigma Aldrich (St. Louis, MO, USA)) was used for the in vitro anticancer activity evaluation, as previously reported. The Ru-NHC complexes were employed at different concentrations (0.1–1–10–25–50–100 μM) for 72 h. The IC50 values were calculated from the percent (%) of control using GraphPad Prism 9 (GraphPad Software, La Jolla, CA, USA).
(Formazan colour is commonly taken as a measure of viable cells.)

Data set [3] has as its system MCF-10A cells. In words: MTT assay, non-tumoral MCF-10A cells. Type of data set: cell-based, human. As to conditions: 72 h exposure.
From the text: (§3) Additionally, we investigated the selectivity of all the synthesized Ru-NHC complexes on the cancer cells by studying their capability to interfere with the growth of two non-tumoral cells, namely the MCF-10A and BALB/3T3 cells.
as §1, §2

The test system of data set [4] is BALB/3T3 cells. In words: MTT assay, non-tumoral BALB/3T3 fibroblasts. Type of data set: cell-based. The note with it: 72 h exposure, non-tumoral mouse embryonic fibroblasts.
From the text: as §3, §1, §2

The nature of data set [5]: Conductivity measurements (hydrolytic stability). Type of data set: physicochemical. As to conditions: DMSO/H2O 90/10, solutions about 10^−3 M, room temperature. The method, then:
The proposed structures and hydrolytic stability were supported by conductivity measurements (solutions about 10^−3 M); in fact, the conductance values for the Ru compounds I, IV, V, and VI determined in DMSO/H2O 90/10 are substantially independent of the concentration, which is close to zero. […] This was attributed to the presence of a small amount of sodium iodide in the sample (about 10 mol%).
The NMR spectra were recorded on a Bruker AM 250 spectrometer (250 MHz for ^1H; 62.5 MHz for ^13C), a Bruker AM 300 spectrometer (300 MHz for ^1H; 75 MHz for ^13C), and a Bruker AVANCE 400 spectrometer (400 MHz for ^1H; 100 MHz for ^13C; 161.97 MHz for ^31P; 376 MHz for ^19F). NMR samples were prepared by solubilizing about 15 mg of compound in 0.5 mL of deuterated solvent. The ^1H and ^13C NMR chemical shifts are referenced to SiMe4 (δ = 0 ppm) using the residual proton impurities of the deuterated solvents as internal standards. ^1H NMR spectra are referenced using the residual solvent peak δ 2.50 for DMSO-d6 and δ 7.27 for CDCl3. ^13C NMR spectra are referenced using the residual solvent peak at δ 39.51 for DMSO-d6 and δ 77.23 for CDCl3. Multiplicities are abbreviated as follows: singlet (s), doublet (d), triplet (t), multiplet (m), doublet of doublets (dd), broad (br), and overlapped (o). Elemental analysis was conducted using a PERKIN-Elmer 240-C analyzer. ESI-MS measurements were performed on a Waters Quattro Micro triple quadrupole mass spectrometer, equipped with an electrospray ion source. MALDI-MS mass spectra were achieved by a Bruker SolariX XR Fourier transform ion cyclotron resonance mass spectrometer (Bruker Daltonik GmbH, Bremen, Germany) with a 7 T refrigerated actively shielded superconducting magnet (Bruker Biospin, Wissembourg, France). MALDI ion source (Bruker Daltonik GmbH, Bremen, Germany) was used in the samples in positive ion mode. The mass range was set to m/z 200–3000. The laser power was 28% and 22 laser shots were utilized for each scan. The mass spectra were calibrated externally using a mix of peptide clusters in MALDI ionization positive ion mode. A linear calibration was applied. The molar conductance of the ruthenium complexes was measured at room temperature by a Metrohm 712 Conductometer using freshly prepared 10^−3 M solutions in DMSO/H2O 90/10 solvent.

As to `COC(Cn1ccn(C)[c]1=[Ru]([Cl])[Cl])c1ccccc1.Cc1ccc(C(C)C)cc1` (stereo not drawn) [RANHC-I], the IC50 (as a rule, the concentration needed to halve the response being measured) in data set [1] is 369.6 ± 1.1 µM; in data set [2] it was > 100 µM; in data set [3], > 100 µM; in data set [4], > 100 µM. For the same compound, in data set [5], the conductivity entry was “close to zero”.

`COC(Cn1ccn(C)[c]1=[Ru]([I])[I])c1ccccc1.Cc1ccc(C(C)C)cc1` (stereo not drawn) [RANHC-II]: the IC50 in data set [1] is 214.8 ± 1.1 µM; in data set [2], > 100 µM; in data set [3] it was > 100 µM; in data set [4] it was > 100 µM. Moreover, the conductivity in data set [5] was 13.1–44.2 μS cm^−1.

In the case of `COC(Cn1ccn(C)[c]1=[Ru]1[O]C(=O)C(=O)[O]1)c1ccccc1.Cc1ccc(C(C)C)cc1` (stereo not drawn) [RANHC-IV], the IC50 in data set [1] was 512.3 ± 0.8 µM; in data set [2], > 100 µM; in data set [3], > 100 µM; in data set [4], > 100 µM. In data set [5], the conductivity entry is given as “close to zero”.

On to `CN1C=CN2CC(c3ccccc3)[O+](C)[Ru]([Cl])=[C]12.Cc1ccc(C(C)C)cc1.F[P-](F)(F)(F)(F)F` (stereo not drawn) [RANHC-III], for which the IC50 is 44.2 ± 1.2 µM in data set [1], > 100 µM in data set [2], > 100 µM in data set [3] and > 100 µM in data set [4]. In addition, the conductivity in data set [5] is given as 6.3–25.6 μS cm^−1.

For the compound `COC(Cn1c(Cl)c(Cl)n(C)[c]1=[Ru]([Cl])[Cl])c1ccccc1.Cc1ccc(C(C)C)cc1` (stereo not drawn) [RANHC-V], the IC50 in data set [1] is 246.2 ± 1.2 µM; in data set [2], 26.1 ± 0.9 µM; in data set [3], 79.5 ± 1.2 µM; in data set [4], > 100 µM. Moreover, in data set [5], the conductivity result is reported as “close to zero”.

As to `COC(Cn1[c](=[Ru]([Cl])[Cl])n(C)c2ccccc21)c1ccccc1.Cc1ccc(C(C)C)cc1` (stereo not drawn) [RANHC-VI], the half-inhibitory concentration (IC50) was found to be 161.6 ± 1 µM in data set [1], 54.8 ± 1.1 µM in data set [2], 90.7 ± 1.2 µM in data set [3] and 39.1 ± 1.1 µM in data set [4]. For the same compound, in data set [5], the conductivity entry is recorded as “close to zero”.
